Assays:
Assay type in all cases: in vivo
[1] = system: redroot pigweed (Amaranthus retroflexus, AMARE); experiment: Pre-emerge test, greenhouse herbicide activity screening; settings: rated 14 days after application, 0 = no damage, 100 = complete death
Summary of the method: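 Plants grown in 10 cm pots of sandy loam mix received acetone-dissolved compounds through a moving flat-fan nozzle. Doses ranged from 15 to 1000 g ai/ha. Pre-emerge pots were seeded one day earlier, post-emerge pots 8–21 days earlier. Fourteen days on, each pot was graded 0–100 for damage.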

[2] = system: barnyardgrass (Echinochloa crus-galli, ECHCG); experiment: as above; settings: rated 14 days after application, 0 = no damage, 100 = complete death
Summary of the method: (§1)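 Applied at 15–1000 g ai/ha from acetone in 187 l/ha spray volume. Post-emergence applications included 0.25% v/v non-ionic surfactant and reached plants sown 8–21 days before. Pre-emergence applications were incorporated by surface watering. Efficacy or crop damage was rated on a 0–100 scale after 14 days.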

[3] = system: green foxtail (Setaria viridis, SETVI); experiment: as above; settings: rated 14 days after application, 0 = no damage, 100 = complete death
Summary of the method: as §1

[4] = system: ivyleaf morningglory (Ipomoea hederacea, IPOHE); experiment: as above; settings: rated 14 days after application, 0 = no damage, 100 = complete death
Summary of the method: as §1

[5] = system: johnsongrass (Sorghum halepense, SORHA); experiment: as above; settings: rated 14 days after application, 0 = no damage, 100 = complete death
Summary of the method: as §1

[6] = system: lambsquarters (Chenopodium album, CHEAL); experiment: as above; settings: rated 14 days after application, 0 = no damage, 100 = complete death
Summary of the method: as §1

[7] = system: large crabgrass (Digitaria sanguinalis, DIGSA); experiment: as above; settings: rated 14 days after application, 0 = no damage, 100 = complete death
Summary of the method: as §1

[8] = system: sicklepod (Cassia obtusifolia, CASOB); experiment: as above; settings: rated 14 days after application, 0 = no damage, 100 = complete death
Summary of the method: as §1

[9] = system: velvetleaf (Abutilon theophrasti, ABUTH); experiment: as above; settings: rated 14 days after application, 0 = no damage, 100 = complete death
Summary of the method: as §1

[10] = system: field corn (Zea mays L., var. Dekalb 535, CORN); experiment: Pre-emerge test, crop safety; settings: rated 14 days after application, 0 = no damage, 100 = complete death
Summary of the method: (§2)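 Sandy loam pots; pre-emerge: sown 1 d pre-spray, surface-watered after, then bottom-watered. Post-emerge: sown 8–21 d before, 2–3 leaf stage, + 0.25% v/v NIS, bottom-watered. Acetone, 187 l/ha track spray, 15–1000 g ai/ha. 0–100 injury score, day 14.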

[11] = system: upland rice (Oryza sp., var. Tebonnet, RICE); experiment: Pre-emerge test, crop safety; settings: rated 14 days after application, 0 = no damage, 100 = complete death
Summary of the method: as §2

[12] = system: barnyardgrass (Echinochloa crus-galli, ECHCG); experiment: Post-emerge test, greenhouse herbicide activity screening; settings: post-emerge, 14 days after application, rating scale 0-100
Summary of the method: (§3)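 Compounds in acetone were track-sprayed at 187 l/ha, 15–1000 g ai/ha, onto sandy loam pots. Pre-emerge seeds were sown one day before spraying, with surface watering afterwards. Post-emerge plants were at the 2–3 leaf stage and sprayed with 0.25% v/v non-ionic surfactant. Injury was rated 0–100 at 14 days.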

[13] = system: common ragweed (Ambrosia artemisizfolia L., AMBEL); experiment: as above; settings: post-emerge, 14 days after application, rating scale 0-100
Summary of the method: as §3

[14] = system: green foxtail (Setaria viridis, SETVI); experiment: as above; settings: post-emerge, 14 days after application, rating scale 0-100
Summary of the method: as §3

[15] = system: ivyleaf morningglory (Ipomoea hederacea, IPOHE); experiment: as above; settings: post-emerge, 14 days after application, rating scale 0-100
Summary of the method: as §3

[16] = system: johnsongrass (Sorghum halepense, SORHA); experiment: as above; settings: post-emerge, 14 days after application, rating scale 0-100
Summary of the method: as §3

[17] = system: lambsquarters (Chenopodium album, CHEAL); experiment: as above; settings: post-emerge, 14 days after application, rating scale 0-100
Summary of the method: as §3

[18] = system: large crabgrass (Digitaria sanguinalis, DIGSA); experiment: as above; settings: post-emerge, 14 days after application, rating scale 0-100
Summary of the method: as §3

[19] = system: redroot pigweed (Amaranthus retroflexus, AMARE); experiment: as above; settings: post-emerge, 14 days after application, rating scale 0-100
Summary of the method: as §3

[20] = system: sicklepod (Cassia obtusifolia, CASOB); experiment: as above; settings: post-emerge, 14 days after application, rating scale 0-100
Summary of the method: as §3

[21] = system: velvetleaf (Abutilon theophrasti, ABUTH); experiment: as above; settings: post-emerge, 14 days after application, rating scale 0-100
Summary of the method: as §3

[22] = system: field corn (Zea mays L., var. Dekalb 535, CORN); experiment: Post-emerge test, crop safety; settings: post-emerge, 14 days after application, rating scale 0-100
Summary of the method: as §1

[23] = system: upland rice (Oryza sp., var. Tebonnet, RICE); experiment: Post-emerge test, crop safety; settings: post-emerge, 14 days after application, rating scale 0-100
Summary of the method: as §1

COc1c(Cl)cc(F)c(-n2c(=O)cc(C(F)(F)F)n(C)c2=O)c1NC(=O)c1cccc2ccccc12 [2-74]
Pre-emerge Herbicidal Activity, phytotoxicity rating (0-100), AMARE ([1]; 63 g ai/ha): 100 | Pre-emerge Herbicidal Activity, phytotoxicity rating (0-100), AMARE ([1]; 250 g ai/ha): 100 | Pre-emerge Herbicidal Activity, phytotoxicity rating (0-100), ECHCG ([2]; 63 g ai/ha): 0 | Pre-emerge Herbicidal Activity, phytotoxicity rating (0-100), ECHCG ([2]; 250 g ai/ha): 100 | Pre-emerge Herbicidal Activity, phytotoxicity rating (0-100), SETVI ([3]; 63 g ai/ha): 70 | Pre-emerge Herbicidal Activity, phytotoxicity rating (0-100), SETVI ([3]; 250 g ai/ha): 100 | Pre-emerge Herbicidal Activity, phytotoxicity rating (0-100), IPOHE ([4]; 63 g ai/ha): 0 | Pre-emerge Herbicidal Activity, phytotoxicity rating (0-100), IPOHE ([4]; 250 g ai/ha): 50 | Pre-emerge Herbicidal Activity, phytotoxicity rating (0-100), SORHA ([5]; 63 g ai/ha): 0 | Pre-emerge Herbicidal Activity, phytotoxicity rating (0-100), SORHA ([5]; 250 g ai/ha): 100 | Pre-emerge Herbicidal Activity, phytotoxicity rating (0-100), CHEAL ([6]; 63 g ai/ha): 100 | Pre-emerge Herbicidal Activity, phytotoxicity rating (0-100), CHEAL ([6]; 250 g ai/ha): 100 | Pre-emerge Herbicidal Activity, phytotoxicity rating (0-100), DIGSA ([7]; 63 g ai/ha): 20 | Pre-emerge Herbicidal Activity, phytotoxicity rating (0-100), DIGSA ([7]; 250 g ai/ha): 100 | Pre-emerge Herbicidal Activity, phytotoxicity rating (0-100), CASOB ([8]; 63 g ai/ha): 40 | Pre-emerge Herbicidal Activity, phytotoxicity rating (0-100), CASOB ([8]; 250 g ai/ha): 70 | Pre-emerge Herbicidal Activity, phytotoxicity rating (0-100), ABUTH ([9]; 63 g ai/ha): 100 | Pre-emerge Herbicidal Activity, phytotoxicity rating (0-100), ABUTH ([9]; 250 g ai/ha): 100 | Pre-emerge phytotoxicity rating (0-100), crop damage, CORN ([10]; 63 g ai/ha): 0 | Pre-emerge phytotoxicity rating (0-100), crop damage, CORN ([10]; 250 g ai/ha): 15 | Pre-emerge phytotoxicity rating (0-100), crop damage, RICE ([11]; 63 g ai/ha): 30 | Pre-emerge phytotoxicity rating (0-100), crop damage, RICE ([11]; 250 g ai/ha): 60 | phytotoxicity rating ECHCG ([12]; 63 g ai/ha): 0 | phytotoxicity rating ECHCG ([12]; 250 g ai/ha): 0 | phytotoxicity rating AMBEL ([13]; 63 g ai/ha): 70 | phytotoxicity rating AMBEL ([13]; 250 g ai/ha): 95 | phytotoxicity rating SETVI ([14]; 63 g ai/ha): 0 | phytotoxicity rating SETVI ([14]; 250 g ai/ha): 20 | phytotoxicity rating IPOHE ([15]; 63 g ai/ha): 60 | phytotoxicity rating IPOHE ([15]; 250 g ai/ha): 60 | phytotoxicity rating SORHA ([16]; 63 g ai/ha): 0 | phytotoxicity rating SORHA ([16]; 250 g ai/ha): 0 | phytotoxicity rating CHEAL ([17]; 63 g ai/ha): 70 | phytotoxicity rating CHEAL ([17]; 250 g ai/ha): 70 | phytotoxicity rating DIGSA ([18]; 63 g ai/ha): 0 | phytotoxicity rating DIGSA ([18]; 250 g ai/ha): 0 | phytotoxicity rating AMARE ([19]; 63 g ai/ha): 95 | phytotoxicity rating AMARE ([19]; 250 g ai/ha): 100 | phytotoxicity rating CASOB ([20]; 63 g ai/ha): 30 | phytotoxicity rating CASOB ([20]; 250 g ai/ha): 70 | phytotoxicity rating ABUTH ([21]; 63 g ai/ha): 100 | phytotoxicity rating ABUTH ([21]; 250 g ai/ha): 100 | phytotoxicity rating CORN ([22]; 63 g ai/ha): 0 | phytotoxicity rating CORN ([22]; 250 g ai/ha): 15 | phytotoxicity rating RICE ([23]; 63 g ai/ha): 25 | phytotoxicity rating RICE ([23]; 250 g ai/ha): 50

Reference: patent US6355799B1, “Substituted benzene compounds, process for their preparation, and herbicidal and defoliant compositions containing them” (ISK Americas Incorporated, priority 1997, dated 2002)
